Results taken from US20230049231A1 (priority 2019, published 2023).

Experiments:
[1] = target: T1, Kv1.3 potassium channel (Homo sapiens, UniProt P22001); assay: Kv1.3 potassium channel blocker activity, automated whole-cell patch clamp (Patchliner); format: cell-based; conditions: Kv1.3 potassium channel, whole-cell patch clamp
T1 construct: expressed in transfected cells
Outline: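 IC50 came from Hill-equation fits of peak and AUC currents from the final pulse at each concentration, normalized to compound-free control. Compounds applied consecutively at 30 nM to 100 μM (up to 0.3% DMSO) to Kv1.3-expressing CHO-K1 cells, P/4 leak subtraction. Pulses were +40 mV, 100 ms, from −90 mV holding, at 0.1 Hz on Patchliner.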

[2] = target: T2, hERG channel (Homo sapiens, UniProt Q12809); assay: hERG electrophysiology, automated whole-cell patch clamp (Patchliner); format: cell-based; conditions: hERG channel, whole-cell patch clamp
T2 construct: expressed in transfected cells
T2 sequence (Q12809 whole entry): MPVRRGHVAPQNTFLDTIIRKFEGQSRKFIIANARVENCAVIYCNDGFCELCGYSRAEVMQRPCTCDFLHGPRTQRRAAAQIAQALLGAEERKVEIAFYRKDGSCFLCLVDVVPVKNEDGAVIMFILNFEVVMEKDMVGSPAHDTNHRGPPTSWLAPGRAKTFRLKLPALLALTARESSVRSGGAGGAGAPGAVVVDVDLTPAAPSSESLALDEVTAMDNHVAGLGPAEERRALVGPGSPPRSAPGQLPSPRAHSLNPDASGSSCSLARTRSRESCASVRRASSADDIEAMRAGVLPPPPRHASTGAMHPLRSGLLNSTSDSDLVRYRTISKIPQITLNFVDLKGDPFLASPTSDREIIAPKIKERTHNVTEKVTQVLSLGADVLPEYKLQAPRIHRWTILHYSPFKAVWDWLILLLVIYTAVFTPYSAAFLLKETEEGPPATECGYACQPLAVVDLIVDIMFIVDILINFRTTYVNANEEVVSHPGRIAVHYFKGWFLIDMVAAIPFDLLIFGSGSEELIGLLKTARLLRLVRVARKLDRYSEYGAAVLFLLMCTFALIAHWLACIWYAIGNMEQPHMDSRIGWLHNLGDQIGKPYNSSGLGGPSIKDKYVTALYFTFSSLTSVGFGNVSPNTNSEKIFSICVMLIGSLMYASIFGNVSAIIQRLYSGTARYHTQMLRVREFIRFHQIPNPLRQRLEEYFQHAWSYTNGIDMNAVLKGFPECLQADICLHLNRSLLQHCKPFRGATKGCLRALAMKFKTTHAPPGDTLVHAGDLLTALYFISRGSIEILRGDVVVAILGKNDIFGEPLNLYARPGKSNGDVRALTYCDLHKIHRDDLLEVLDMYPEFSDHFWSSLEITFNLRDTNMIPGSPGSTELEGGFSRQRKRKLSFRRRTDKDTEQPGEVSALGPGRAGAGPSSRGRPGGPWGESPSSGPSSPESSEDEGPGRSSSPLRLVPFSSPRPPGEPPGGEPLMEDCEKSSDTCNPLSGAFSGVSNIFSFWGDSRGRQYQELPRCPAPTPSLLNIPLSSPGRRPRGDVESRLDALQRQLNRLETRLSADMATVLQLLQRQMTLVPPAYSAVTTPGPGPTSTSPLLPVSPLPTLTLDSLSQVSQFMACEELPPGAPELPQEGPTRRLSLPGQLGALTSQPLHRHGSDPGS
Outline: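 Automated whole-cell patch clamp on CHO-K1 cells stably expressing hERG; 30 nM–100 μM applied cumulatively to the same cell, ≤0.3% DMSO. Pulses: −80 mV holding, +20 mV for 300 ms, −50 mV for 300 ms tail, 0.3 Hz, 70 per concentration. Last-pulse AUC and peak, normalized to control, were fitted to a Hill equation for IC50.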

T1 sequence (P22001 whole entry): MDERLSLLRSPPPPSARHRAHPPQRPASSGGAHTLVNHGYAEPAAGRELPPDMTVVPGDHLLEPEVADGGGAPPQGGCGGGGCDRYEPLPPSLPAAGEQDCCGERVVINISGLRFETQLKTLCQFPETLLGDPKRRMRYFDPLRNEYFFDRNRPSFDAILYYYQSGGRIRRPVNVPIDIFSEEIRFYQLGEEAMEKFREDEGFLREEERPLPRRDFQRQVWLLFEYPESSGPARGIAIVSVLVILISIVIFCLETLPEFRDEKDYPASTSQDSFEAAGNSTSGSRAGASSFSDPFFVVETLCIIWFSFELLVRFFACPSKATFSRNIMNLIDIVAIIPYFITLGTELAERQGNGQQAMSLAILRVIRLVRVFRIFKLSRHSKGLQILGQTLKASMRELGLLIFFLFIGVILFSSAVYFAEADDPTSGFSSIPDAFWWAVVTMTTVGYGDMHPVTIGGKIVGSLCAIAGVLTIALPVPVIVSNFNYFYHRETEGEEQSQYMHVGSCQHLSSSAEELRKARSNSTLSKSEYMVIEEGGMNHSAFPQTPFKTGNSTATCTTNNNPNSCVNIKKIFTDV

Row | Structure (SMILES) | IC50 [1] [µM] | IC50 [2] [µM]
1 | O=C1CN([C@H]2CCNC2)C[C@@H]2C[C@H](c3c(O)ccc(Cl)c3Cl)CN12 [Compound 142, (7R,8aS)-7-(2,3-dichloro-6-hydroxyphenyl)-2-[(3S)-pyrrolidin-3-yl]-hexahydropyrrolo [1,2-a]pyrazin-4-one] | < 1 | > 30
2 | O=C1CN([C@@H]2CCNC2)C[C@@H]2C[C@H](c3c(O)ccc(Cl)c3Cl)CN12 [Compound 143, (7R,8aS)-7-(2,3-dichloro-6-hydroxyphenyl)-2-[(3R)-pyrrolidin-3-yl]-hexahydropyrrolo [1,2-a]pyrazin-4-one] | < 1 | > 30
3 | O=C1CN(C[C@@H]2COCCN2)C[C@@H]2C[C@H](c3c(O)ccc(Cl)c3Cl)CN12 [Compound 144, (7R,8aS)-7-(2,3-dichloro-6-hydroxyphenyl)-2-[(3R)-morpholin-3-ylmethyl]-hexahydropyrrolo [1,2-a]pyrazin-4-one] | < 1 | > 30
4 | O=C1CN(C[C@H]2COCCN2)C[C@@H]2C[C@H](c3c(O)ccc(Cl)c3Cl)CN12 [Compound 145, (7R,8aS)-7-(2,3-dichloro-6-hydroxyphenyl)-2-[(3S)-morpholin-3-ylmethyl]-hexahydropyrrolo [1,2-a]pyrazin-4-one] | < 1 | < 30
5 | O=C1CN(C[C@@H]2CNCCO2)C[C@@H]2C[C@H](c3c(O)ccc(Cl)c3Cl)CN12 [Compound 146, (7R,8aS)-7-(2,3-dichloro-6-hydroxyphenyl)-2-[(2S)-morpholin-2-ylmethyl]-hexahydropyrrolo [1,2-a]pyrazin-4-one] | < 1 | > 30
6 | O=C1CN(C[C@H]2CNCCO2)C[C@@H]2C[C@H](c3c(O)ccc(Cl)c3Cl)CN12 [Compound 147, (7R,8aS)-7-(2,3-dichloro-6-hydroxyphenyl)-2-[(2R)-morpholin-2-ylmethyl]-hexahydropyrrolo [1,2-a]pyrazin-4-one] | < 1 | > 30
7 | CC(C)(O)CN1CC(=O)N2C[C@@H](c3c(O)ccc(Cl)c3Cl)C[C@H]2C1 [Compound 148, (7R,8aS)-7-(2,3-dichloro-6-hydroxyphenyl)-2-(2-hydroxy-2-methylpropyl)-hexahydropyrrolo[1,2-a]pyrazin-4-one] | < 1 | > 30
8 | O=C1CN(C2COCC2O)C[C@@H]2C[C@H](c3c(O)ccc(Cl)c3Cl)CN12 (stereo partly drawn) [Compound 149, (7R,8aS)-7-(2,3-dichloro-6-hydroxyphenyl)-2-(4-hydroxyoxolan-3-yl)-hexahydropyrrolo[1,2-a]pyrazin-4-one] | < 1 | > 30
9 | COC(CO)CN1CC(=O)N2C[C@@H](c3c(O)ccc(Cl)c3Cl)C[C@H]2C1 (stereo partly drawn) [Compound 156, (7R,8aS)-7-(2,3-dichloro-6-hydroxyphenyl)-2-(3-hydroxy-2-methoxypropyl) hexahydropyrrolo[1,2-a]pyrazin-4-one] | < 1 | > 30
10 | O=C1CN(CC2(O)CNC2)C[C@@H]2C[C@H](c3c(O)ccc(Cl)c3Cl)CN12 [Compound 157, (7R,8aS)-7-(2,3-dichloro-6-hydroxyphenyl)-2-[(3-hydroxyazetidin-3-yl)methyl]-hexahydropyrrolo[1,2-a]pyrazin-4-one;] | < 1 | > 30
11 | CC(CO)(CO)N1CC(=O)N2C[C@@H](c3c(O)ccc(Cl)c3Cl)C[C@H]2C1 [Compound 162, (7R,8aS)-7-(2,3-dichloro-6-hydroxyphenyl)-2-(1,3-dihydroxy-2-methylpropan-2-yl)-hexahydropyrrolo[1,2-a]pyrazin-4-one] | < 1 | > 30
12 | CC1(CN2CC(=O)N3C[C@@H](c4c(O)ccc(Cl)c4Cl)C[C@H]3C2)CNC1 [Compound 167, (7R,8aS)-7-(2,3-dichloro-6-hydroxyphenyl)-2-[(3-methylazetidin-3-yl)methyl]-hexahydropyrrolo[1,2-a]pyrazin-4-one] | < 1 | > 30
13 | O=C1CN(c2ccnc(CO)n2)C[C@@H]2C[C@H](c3c(O)ccc(Cl)c3Cl)CN12 [Compound 169, (7R,8aS)-7-(2,3-dichloro-6-hydroxyphenyl)-2-[2-(hydroxymethyl)pyrimidin-4-yl]-hexahydropyrrolo[1,2-a]pyrazin-4-one] | < 1 | > 30
14 | Nc1ccnc(N2CC(=O)N3C[C@@H](c4c(O)ccc(Cl)c4Cl)C[C@H]3C2)c1 [Compound 171, (7R,8aS)-2-(4-aminopyridin-2-yl)-7-(2,3-dichloro-6-hydroxyphenyl)-hexahydropyrrolo[1,2-a]pyrazin-4-one] | < 1 | < 10
15 | O=C1CN(c2cnc(CO)cn2)C[C@@H]2C[C@H](c3c(O)ccc(Cl)c3Cl)CN12 [Compound 172] | < 1 | < 30
16 | O=C1CN(c2cc(CO)ccn2)C[C@@H]2C[C@H](c3c(O)ccc(Cl)c3Cl)CN12 [Compound 173] | < 1 | < 30
17 | O=C1CN(c2ncn[nH]2)C[C@@H]2C[C@H](c3c(O)ccc(Cl)c3Cl)CN12 [Compound 175, (7R,8aS)-7-(2,3-dichloro-6-hydroxyphenyl)-2-(1H-1,2,4-triazol-5-yl)hexahydropyrrolo[1,2-a]pyrazin-4(1H)-one] | < 1 | > 30
18 | O=C1CN(c2ncc[nH]2)C[C@@H]2C[C@H](c3c(O)ccc(Cl)c3Cl)CN12 [Compound 176, (7R,8aS)-7-(2,3-dichloro-6-hydroxyphenyl)-2-(1H-imidazol-2-yl)-hexahydropyrrolo[1,2-a]pyrazin-4-one] | < 1 | < 30
19 | NCC1OC[C@@H]2C[C@H](c3c(O)ccc(Cl)c3Cl)CCN2C1=O (stereo partly drawn) [Compound 180, (8R,9aS)-3-(aminomethyl)-8-(2,3-dichloro-6-hydroxyphenyl)-hexahydro-1H-pyrido[2,1-c][1,4]oxazin-4-one] | < 1 | < 30
20 | O=C1C(CN2CCCC2)OC[C@@H]2C[C@H](c3c(O)ccc(Cl)c3Cl)CCN12 (stereo partly drawn) [Compound 181, (8R,9aS)-8-(2,3-dichloro-6-hydroxyphenyl)-3-(pyrrolidin-1-ylmethyl)-hexahydro-1H-pyrido[2,1-c][1,4]oxazin-4-one] | < 1 | < 10
21 | CNCC1OC[C@@H]2C[C@H](c3c(O)ccc(Cl)c3Cl)CCN2C1=O (stereo partly drawn) [Compound 182, (8R,9aS)-8-(2,3-dichloro-6-hydroxyphenyl)-3-[(methylamino)methyl]-hexahydro-1H-pyrido[2,1-c][1,4]oxazin-4-one] | < 1 | < 30
22 | O=C1C(CN2CC(O)C2)OC[C@@H]2C[C@H](c3c(O)ccc(Cl)c3Cl)CCN12 (stereo partly drawn) [Compound 183, (8R,9aS)-8-(2,3-dichloro-6-hydroxyphenyl)-3-[(3-hydroxyazetidin-1-yl)methyl]-hexahydro-1H-pyrido[2,1-c][1,4]oxazin-4-one] | < 1 | < 30
23 | O=C(CO)NCC1OC[C@@H]2C[C@H](c3c(O)ccc(Cl)c3Cl)CCN2C1=O (stereo partly drawn) [Compound 185, N-[[(8R,9aS)-8-(2,3-dichloro-6-hydroxyphenyl)-4-oxo-hexahydro-1H-pyrido[2,1-c][1,4]oxazin-3-yl]methyl]-2-hydroxyacetamide] | < 1 | > 30
24 | NC(=O)CC1OC[C@@H]2C[C@H](c3c(O)ccc(Cl)c3Cl)CCN2C1=O (stereo partly drawn) [Compound 187, 2-[(8R,9aS)-8-(2,3-dichloro-6-hydroxyphenyl)-4-oxo-hexahydro-1H-pyrido[2,1-c][1,4]oxazin-3-yl]acetamide] | < 1 | > 30
